This note sets out measurements from ChEMBL document CHEMBL1128127, “The design of potent and stable benzisothiazolone inhibitors of human leukocyte elastase” (Bioorg Med Chem Lett, 1995).

Data set [1] is described as follows: in vitro. Particulars: human, blood.
Description: Half-life (human blood stability)
Data set [2] addresses T1, Neutrophil elastase (Homo sapiens, UniProt P08246).
T1 sequence (P08246 whole entry): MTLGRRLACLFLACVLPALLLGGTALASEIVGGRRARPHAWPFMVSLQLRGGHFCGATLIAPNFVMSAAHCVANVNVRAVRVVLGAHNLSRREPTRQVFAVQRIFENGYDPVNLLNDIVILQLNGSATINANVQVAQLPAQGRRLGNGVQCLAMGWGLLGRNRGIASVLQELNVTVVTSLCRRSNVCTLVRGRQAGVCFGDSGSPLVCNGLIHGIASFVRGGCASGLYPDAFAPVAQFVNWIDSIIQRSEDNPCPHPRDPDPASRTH
Description: Ratio of Koff to that of Kon was determined on human leukocyte elastase(HLE)

In data set [3] the target is T2, Neutrophil elastase (Homo sapiens) (UniProt P08246).
T2 sequence (whole entry): T1 sequence (P08246 whole entry)
Description: (§1) Evaluated for inhibitory activity against Human leukocyte elastase (HLE)

The target of data set [4] is T2, Neutrophil elastase (Homo sapiens). The source holds these as a separate data set.
Description: as §1
Data set [5] in a line: Half-life was determined; 88% of parent remained after incubation for 120 min (human blood stability). It is filed as ADME, tissue-based.

As a reminder, the half-life is how long it takes for the measured level to halve. In data set [1], `O=C1c2ccccc2S(=O)(=O)N1CSc1nnnn1-c1ccccc1` registered a half-life of less than 5 min.

Broadly, the Ki is the dissociation constant of the complex between target and ligand, obtained from inhibition or displacement. Low readings indicate higher affinity, high ones lower affinity. Molecule `COc1cc2c(c(C(C)C)c1OC)C(=O)N(CSc1nnnn1-c1ccccc1)S2(=O)=O` registered a Ki in data set [2] of 5.2 nM. The k on in data set [3] was determined as 11800 M⁻¹ s⁻¹. This molecule also displayed a k off in data set [4] of 6.1e-05 s⁻¹. For the same molecule, the half-life in data set [1] stood at 65 min.

Consider `CCCc1c(OC)c(OC)cc2c1C(=O)N(CSc1nnnn1-c1ccccc1)S2(=O)=O`, for which the Ki in data set [2] came to 0.2 nM. Besides, the k on in data set [3] was 240000 M⁻¹ s⁻¹. In data set [4], this molecule gave a k off of 4.7e-05 s⁻¹. In addition, in data set [1], the half-life was determined as 37 min.

On to `CC(C)c1cc(F)cc2c1C(=O)N(COC(=O)c1c(Cl)cccc1Cl)S2(=O)=O`, for which, in data set [2], the Ki amounted to 0.03 nM. The molecule also gave a k on in data set [3] of 1e+06 M⁻¹ s⁻¹. In data set [4], this molecule displayed a k off of 3e-05 s⁻¹. Also, the half-life in data set [1] was less than 15 min.

Regarding `CCC(C)c1cccc2c1C(=O)N(CSc1nnnn1-c1ccccc1)S2(=O)=O` (stereo unspecified), the half-life in data set [1] stood at 58 min.

In data set [1], `CCc1cccc2c1C(=O)N(CSc1nnnn1-c1ccccc1)S2(=O)=O` registered a half-life of 54 min.

`CC(C)c1cccc2c1C(=O)N(COC(=O)c1c(Cl)cccc1Cl)S2(=O)=O` gave a k on in data set [3] of 900000 M⁻¹ s⁻¹. Also, in data set [4], the k off turned out to be 2.7e-05 s⁻¹. Besides, the half-life in data set [1] turned out to be 30 min.

For `CC(C)c1cc(N2CCN(C)CC2)cc2c1C(=O)N(COC(=O)c1c(Cl)cccc1Cl)S2(=O)=O`, in data set [2], the Ki turned out to be 1.1 nM. Also, the k on in data set [3] was 21500 M⁻¹ s⁻¹. Besides, the k off in data set [4] amounted to 2.4e-05 s⁻¹. The half-life in data set [1] was found to be 110 min.

For `CCCc1cccc2c1C(=O)N(CSc1nnnn1-c1ccccc1)S2(=O)=O`, the half-life in data set [1] was determined as 55 min.

On to `CC(C)(C)c1cccc2c1C(=O)N(CSc1nnnn1-c1ccccc1)S2(=O)=O`, for which the half-life in data set [5] was more than 120 min. Also, the Ki in data set [2] is more than 2000 nM.

Take `COc1cc(C(C)C)c2c(c1)S(=O)(=O)N(COC(=O)c1c(Cl)cccc1Cl)C2=O`: the half-life in data set [1] stood at 140 min.

With `CC(C)c1cc(N(C)C)cc2c1C(=O)N(COC(=O)c1c(Cl)cccc1Cl)S2(=O)=O`, the Ki in data set [2] was 2.2 nM. For the same molecule, in data set [3], the k on came out at 12300 M⁻¹ s⁻¹. Further, the k off in data set [4] amounted to 2.7e-05 s⁻¹.

In data set [1], `CC(C)c1cccc2c1C(=O)N(CSc1nnnn1-c1ccccc1)S2(=O)=O` gave a half-life of 45 min.

Consider `CCC(CC)c1cccc2c1C(=O)N(CSc1nnnn1-c1ccccc1)S2(=O)=O`, for which the half-life in data set [1] turned out to be 100 min.
